Square brackets hold non-standard residues; d marks the D form. Peptide text beside a SMILES is read from it.
Experiments:
Jurkat cells = assay: CXCL12 mediated cell migration, Jurkat cells; format: cell-based, human; details: 1.1 μM test article, 100 ng/ml CXCL12, 1 hour
Method: The assay was performed following a protocol similar to that described by Peng, et al., Mol Cancer Ther., 14480-90 (2015), incorporated herein by reference. Peptides were initially prepared as 1 mM stock in H2O and tested at a final concentration of 1.1 μM. […] Jurkat cells were resuspended in serum free media (RPMI+GlutaMax; Gibco/Thermo Fisher Scientific; Gaithersburg, Md.) containing 0.5% bovine serum albumin at density of 5×10^6 cells/ml. […] Cells (250,000 cells in 50 μl) supplemented with the appropriate treatments were seeded on to the upper chamber of a 96-well 5 μm HTS Transwell filter insert (Corning/Costar; Tewksbury, Mass.). […] Filter inserts were immediately placed on top of 96-well receiver trays and placed at 37° C. in a humidified atmosphere of 5% CO2/95% air for 1 hour. Following the 1 hour incubation period the filter inserts were carefully removed and the migration of cells across the filter into the bottom chamber (receiver wells) was determined by measuring ATP levels using Cell TiterGlo 2.0, according to manufacturer's instructions (Promega; Madison, Wis.); luminescence was measured using a Cytation 3 plate reader (BioTek; Winooski, Vt.).

human CXCR4 [1] = target: T1, human CXCR4 (Homo sapiens, UniProt P61073); assay: CXCR4/CXCL12 binding, HTRF format, single concentration (Example 23); parameters: host or cells: HEK293 (Tag-lite CXCR4 cells, frozen aliquots, transient expression); details: 15 nM CXCR4R fluorescent probe, 3 hours, HEK293 Tag-lite CXCR4 cells
T1 sequence (P61073 whole entry): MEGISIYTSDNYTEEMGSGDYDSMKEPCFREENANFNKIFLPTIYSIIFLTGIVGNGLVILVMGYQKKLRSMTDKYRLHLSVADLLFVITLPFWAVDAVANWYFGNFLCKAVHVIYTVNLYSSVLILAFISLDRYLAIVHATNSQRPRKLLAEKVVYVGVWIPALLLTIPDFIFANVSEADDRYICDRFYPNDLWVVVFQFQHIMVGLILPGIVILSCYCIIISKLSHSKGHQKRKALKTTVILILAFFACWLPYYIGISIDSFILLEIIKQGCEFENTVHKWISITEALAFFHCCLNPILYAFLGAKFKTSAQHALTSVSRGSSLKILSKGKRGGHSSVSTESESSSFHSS
Outline: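 Tag-lite CXCR4 cells were exposed to peptide at 400 nM final with 15 nM (EC80) fluorescent CXCR4 probe for 3 h at room temperature. HTRF was read, and the 665/620 nm ratio ×10,000 measured probe bound to terbium-labelled receptor.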

[2] = system: CXCR4/CXCL12 induced p-MEK; assay: CXCR4/CXCL12 induced p-MEK in Jurkat cells (ELISA); format: cell-based, human; details: 5 nM CXCL12, 5 min
Outline: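 Jurkat cells in RPMI+GlutaMax containing 10% FBS and 1% penicillin/streptomycin, fresh or conditioned, were resuspended at 2×10^6 cells/ml and […] aliquots placed in tubes. After a 5 min stimulation they were pelleted, rinsed with HBSS and lysed with PMSF and protease/phosphatase inhibitors. Phospho-MEK1 (Ser217/221) was quantified by sandwich ELISA with absorbance read at 450 nm.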

human CXCR4 [3] = target: T1, human CXCR4; assay: IC50 for CXCR4/CXCL12 ligand binding, HTRF format (Example 24); parameters: host or cells: HEK293 (Tag-lite CXCR4 cells, frozen aliquots, transient expression)
Method: Peptides were initially prepared as 1 mM stock in H2O. […] Following the manufacture's protocol, a frozen aliquot of Tag-lite CXCR4 cells was thawed and immediately seeded onto 384-well plates in TLB. […] The plates were covered in aluminum foil and left at room temperature for 3 hours. Following the 3 hour incubation period, the plates were removed from the incubator and fluorescence measured using a Cytation 1 plate reader using a HTRF filter cube ([…]; BioTek; Winooski, Vt.).

human CXCR4 [4] = target: T1, human CXCR4; assay: IC50 for inhibition of CXCR4 activation, β-Arrestin recruitment (Example 22); format: cell-based; parameters: host or cells: C2C12 (mouse myoblast) CXCR4 β-Arrestin PathHunter cell line
Outline: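 C2C12 cells co-expressing ProLink-tagged human CXCR4 and Enzyme Acceptor-tagged β-arrestin (PathHunter). Peptides tested in 10-point, 3-fold dilutions from 1 μM (1 μM–0.05 nM). Recruitment read by chemiluminescent enzyme-fragment complementation after 90 min incubation.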

SMILES	Percent Inhibition of CXCR4/CXCL12 Binding (400 nM peptide) (human CXCR4 [1])	IC50 (human CXCR4 [3])	IC50 (human CXCR4 [4])	Percent Inhibition of CXCL12 Mediated Migration (1.1 μM Test Article) (Jurkat cells)	Percent Inhibition of CXCR4/CXCL12 Induced p-MEK (100 nM Test Article) [2]	Percent Inhibition of CXCR4/CXCL12 Induced p-MEK (1 μM Test Article) [2]
CC(C)C[C@H](NC(=O)[C@H](CO)NC(=O)[C@H](CO)NC(=O)[C@H](CCCNC(=N)N)NC(=O)[C@@H](NC(=O)[C@H](CO)NC(=O)[C@H](Cc1c[nH]cn1)NC(=O)[C@H](Cc1c[nH]cn1)NC(=O)[C@H](Cc1ccc(O)cc1)NC(=O)[C@H](CCCNC(=N)N)NC(=O)[C@H](CC(=O)O)NC(=O)[C@@H](N)CC(C)C)C(C)C)C(=O)N[C@@H](CCCNC(=N)N)C(=O)N1CCC[C@H]1C(=O)N[C@@H](Cc1ccc(O)cc1)C(=O)N[C@H](C(=O)N[C@@H](CCCCN)C(=O)O)[C@@H](C)O [compound 7] (H-LDRYHHSVRSSLRPYTK-OH; N-terminus and C-terminus assumed)	89%	5 nM	–	52%	60%	96%
CC(C)C[C@H](NC(=O)[C@H](CO)NC(=O)[C@H](CO)NC(=O)[C@H](CCCNC(=N)N)NC(=O)[C@@H](C)NC(=O)[C@H](CO)NC(=O)[C@H](Cc1c[nH]cn1)NC(=O)[C@H](Cc1c[nH]cn1)NC(=O)[C@H](Cc1ccc(O)cc1)NC(=O)[C@H](CCCNC(=N)N)NC(=O)[C@H](CC(=O)O)NC(=O)[C@@H](N)CC(C)C)C(=O)N[C@@H](CCCNC(=N)N)C(=O)N1CCC[C@H]1C(=O)N[C@@H](Cc1ccc(O)cc1)C(=O)N[C@H](C(=O)N[C@@H](CCCCN)C(=O)O)[C@@H](C)O [compound 8] (H-LDRYHHS[dA]RSSLRPYTK-OH; N-terminus and C-terminus assumed)	86%	–	3 nM	94%	32%	88%
CC(C)C[C@H](NC(=O)[C@H](CO)NC(=O)[C@H](CO)NC(=O)[C@H](CCCNC(=N)N)NC(=O)[C@@H](NC(=O)[C@H](CO)NC(=O)[C@H](Cc1c[nH]cn1)NC(=O)[C@H](Cc1c[nH]cn1)NC(=O)[C@H](Cc1ccc(O)cc1)NC(=O)[C@H](CCCNC(=N)N)NC(=O)[C@H](CCCNC(=N)N)NC(=O)[C@@H](N)CC(C)C)C(C)C)C(=O)N[C@@H](CCCNC(=N)N)C(=O)N1CCC[C@H]1C(=O)N[C@@H](Cc1ccc(O)cc1)C(=O)N[C@H](C(=O)N[C@@H](CCCCN)C(N)=O)[C@@H](C)O [compound 16] (H-LRRYHHSVRSSLRPYTK-NH2; N-terminus assumed)	−2%	573 nM	8 nM	21%	74%	100%
CC(C)C[C@H](NC(=O)[C@H](CO)NC(=O)[C@H](CO)NC(=O)[C@H](CCCNC(=N)N)NC(=O)[C@@H](NC(=O)[C@H](CO)NC(=O)[C@H](Cc1c[nH]cn1)NC(=O)[C@H](Cc1c[nH]cn1)NC(=O)[C@H](Cc1ccccc1)NC(=O)[C@H](CCCNC(=N)N)NC(=O)[C@H](CCCNC(=N)N)NC(=O)[C@@H](N)CC(C)C)C(C)C)C(=O)N[C@@H](CCCNC(=N)N)C(=O)N1CCC[C@H]1C(=O)N[C@@H](Cc1ccc(O)cc1)C(=O)N[C@H](C(=O)N[C@@H](CCCCN)C(=O)O)[C@@H](C)O [compound 53] (H-LRRFHHSVRSSLRPYTK-OH; N-terminus and C-terminus assumed)	5%	–	3 nM	59%	62%	98%
CC(C)C[C@H](NC(=O)[C@H](CO)NC(=O)[C@H](CO)NC(=O)[C@H](CCCNC(=N)N)NC(=O)[C@@H](NC(=O)[C@H](CO)NC(=O)[C@H](Cc1c[nH]cn1)NC(=O)[C@H](Cc1c[nH]cn1)NC(=O)[C@H](Cc1ccc(O)cc1)NC(=O)[C@H](CCCNC(=N)N)NC(=O)[C@H](CCCNC(=N)N)NC(=O)[C@@H](N)CC(C)C)C(C)C)C(=O)N[C@@H](CCCNC(=N)N)C(=O)NCC(=O)N[C@@H](Cc1ccc(O)cc1)C(=O)N[C@H](C(=O)N[C@@H](CCCCN)C(=O)O)[C@@H](C)O [compound 79] (H-LRRYHHSVRSSLRGYTK-OH; N-terminus and C-terminus assumed)	12%	–	3 nM	36%	46%	100%

Now from value to molecule, other results behind:

Percent Inhibition of CXCR4/CXCL12 Binding (400 nM peptide) (human CXCR4 [1])	IC50 (human CXCR4 [3])	IC50 (human CXCR4 [4])	SMILES	Percent Inhibition of CXCL12 Mediated Migration (1.1 μM Test Article) (Jurkat cells)	Percent Inhibition of CXCR4/CXCL12 Induced p-MEK (100 nM Test Article) [2]	Percent Inhibition of CXCR4/CXCL12 Induced p-MEK (1 μM Test Article) [2]
12%	175 nM	3 nM	CC(C)C[C@H](NC(=O)[C@H](CO)NC(=O)[C@H](CO)NC(=O)[C@H](CCCNC(=N)N)NC(=O)[C@@H](NC(=O)[C@@H](NC(=O)[C@H](Cc1c[nH]cn1)NC(=O)[C@H](Cc1c[nH]cn1)NC(=O)[C@H](Cc1ccc(O)cc1)NC(=O)[C@H](CCCNC(=N)N)NC(=O)[C@H](CCCNC(=N)N)NC(=O)[C@@H](N)CC(C)C)[C@@H](C)O)C(C)C)C(=O)N[C@@H](CCCNC(=N)N)C(=O)N1CCC[C@H]1C(=O)N[C@@H](Cc1ccc(O)cc1)C(=O)N[C@H](C(=O)N[C@@H](CCCCN)C(=O)O)[C@@H](C)O [compound 38] (H-LRRYHHTVRSSLRPYTK-OH; N-terminus and C-terminus assumed)	–	51%	96%
11%	–	–	CC(C)C[C@H](NC(=O)[C@H](CO)NC(=O)[C@@H](NC(=O)[C@H](CCCNC(=N)N)NC(=O)[C@@H](NC(=O)[C@H](CO)NC(=O)[C@H](Cc1c[nH]cn1)NC(=O)[C@H](Cc1c[nH]cn1)NC(=O)[C@H](Cc1ccc(O)cc1)NC(=O)[C@H](CCCNC(=N)N)NC(=O)[C@H](CCCNC(=N)N)NC(=O)[C@@H](N)CC(C)C)C(C)C)[C@@H](C)O)C(=O)N[C@@H](CCCNC(=N)N)C(=O)N1CCC[C@H]1C(=O)N[C@@H](Cc1ccc(O)cc1)C(=O)N[C@H](C(=O)N[C@@H](CCCCN)C(=O)O)[C@@H](C)O [compound 70] (H-LRRYHHSVRTSLRPYTK-OH; N-terminus and C-terminus assumed)	21%	57%	93%
87%	–	4 nM	CC(C)C[C@H](NC(=O)[C@H](CO)NC(=O)[C@@H](NC(=O)[C@H](CCCNC(=N)N)NC(=O)[C@@H](NC(=O)[C@H](CO)NC(=O)[C@H](Cc1c[nH]cn1)NC(=O)[C@H](Cc1c[nH]cn1)NC(=O)[C@H](Cc1ccc(O)cc1)NC(=O)[C@H](CCCNC(=N)N)NC(=O)[C@H](CCC(=O)O)NC(=O)[C@@H](N)CC(C)C)C(C)C)[C@@H](C)O)C(=O)N[C@@H](CCCNC(=N)N)C(=O)N1CCC[C@H]1C(=O)N[C@@H](Cc1ccc(O)cc1)C(=O)N[C@H](C(=O)N[C@@H](CCCCN)C(=O)O)[C@@H](C)O [compound 73] (H-LERYHHSVRTSLRPYTK-OH; N-terminus and C-terminus assumed)	82%	47%	96%
